Values joined by “and” are separate entries in the source; they are usually repeats but may differ in a detail not shown here. Equal values may be shown once. “Also recorded” adds a separate entry of the source. Read-outs that look alike come from different tables or passages of the source.
Assay: Plasma pharmacokinetics and brain uptake of antrafenine in mice (LC-MS)
Format: in vivo, male C57BL/6 mice
Conditions: for AUC(0-inf): read-out: Plasma AUC0-inf; for clearance: read-out: Plasma CL; for Vd: read-out: Plasma VSS
Method: Plasma pharmacokinetics and brain uptake of antrafenine was analyzed in male C57BL/6 mice. Antrafenine was administered intravenously at 1 mg/kg and 3 mg/kg into the tail vein and plasma was collected over a 24‐hour sampling period (n = 3 mice/time point). Following administration, the brain was harvested at 4 times over 24 hours and snap frozen in dry ice and subsequently stored frozen (−80°C) until analysis. The concentration of antrafenine was determined using liquid chromatography–mass spectrometry. The in vivo study was conducted using established procedures in accordance with the Australian Code of Practice for the Care and Use of Animals for Scientific Purposes, and the study protocols were reviewed and approved by the Monash Institute of Pharmaceutical Sciences Animal Ethics Committee. See Supporting Information for detailed methods and results. […]
Plasma pharmacokinetics and brain uptake of antrafenine was analyzed in male C57BL/6 mice by the Monash University Centre for Drug Candidate Optimisation. Antrafenine was administered intravenously at 1 mg/kg and 3 mg/kg into the tail vein and plasma was collected over a 24 h sampling period (n=3 mice/time point). Following administration, brain was harvested at four times over 24 hours and snap frozen in dry ice and subsequently stored frozen (-80°C) until analysis. The concentration of antrafenine was determined using liquid chromatography–mass spectrometry (LC-MS).
4 hrs post IV administration of 3 mg/kg Antrafenine was taken as a representative time to compare plasma and brain concentrations. At 4 hrs we determined a mean plasma concentration of 47.5 nM (+5.9 nM SD) and a mean brain concentration of 13.9 nM (+3 nM SD). […]
Plasma pharmacokinetics and brain uptake of antrafenine
The systemic exposure of antrafenine was studied in non-fasted male C57BL/6 mice weighing 19.8 – 24.6 g. Mice had access to food and water ad libitum throughout the pre- and post-dose period. Antrafenine hydrochloride Mw 588.554 (Lot#10-KSS-51-2) was obtained from Toronto Research Chemicals/LGC Standards, Canada, and was dissolved in vehicle; 5% (v/v) DMSO, 25% (v/v) 40% (w/v) Trappsol in 0.9% (w/v) saline, 70% (v/v) 40 mM citrate buffered saline at pH 3.5 at concentrations of 0.5 mg/mL and 1.5 mg/mL.
On the day of dosing, each formulation was prepared by dissolving solid antrafenine in DMSO using vortexing and sonication prior to addition of 40% (w/v) Trappsol in 0.9% (w/v) saline followed by 40 mM citrate-buffered saline at pH 3.5. Each sample was vortexed to create a colorless / light yellow solution and was filtered through a 0.22 µm syringe filter prior to dosing.
Administration of antrafenine was performed by a single bolus IV injection into the tail vein of C57BL/6 male mice using a 1ml syringe with a 25G x 1” needle at a volume of 2 mL/kg. Each […]
formulation was dosed to mice by bolus injection into the lateral tail vein (2 mL/kg) and blood samples were collected at 1, 2, 5, 15 and 30 min; 1, 2, 4, 7.5 and 24 h post-dose (n=3 mice per time point for each formulation). A maximum of three blood samples were obtained from each mouse, with plasma samples being taken via submandibular bleed (approximately 120 μL).
Blood was collected into polypropylene Eppendorf tubes containing heparin as anticoagulant and stabilization cocktail (Complete® (containing a protease inhibitor cocktail and EDTA) and potassium fluoride) to minimize the potential for ex vivo compound degradation in blood/plasma samples. Once collected, blood samples were centrifuged immediately, supernatant plasma was removed, snap frozen in dry ice and stored at -80°C until analysis by LC-MS. In addition, at the 15 min, 1, 4 and 24 h post-dose time points, the whole brain was rapidly removed from the carcass soon after the blood collection. The whole brains were blotted to remove excess blood, placed into pre-weighed polypropylene vials and weighed. The brains were snap frozen in dry […]

[1] = IV 1 mg/kg, 0.25 h, individual mice, 1 mg/kg
[2] = IV 1 mg/kg, 1 h, individual mice, 1 mg/kg
[3] = IV 1 mg/kg, 4 h, individual mice, 1 mg/kg
[4] = IV 3 mg/kg, 0.25 h, individual mice, 3 mg/kg
[5] = IV 3 mg/kg, 1 h, individual mice, 3 mg/kg
[6] = IV 3 mg/kg, 4 h, individual mice, 3 mg/kg
[7] = male, C57BL/6, mouse, plasma, IV administration at 1mg/kg
[8] = male, C57BL/6, mouse, plasma, IV administration at 3mg/kg

Compound: O=C(OCCN1CCN(c2cccc(C(F)(F)F)c2)CC1)c1ccccc1Nc1ccnc2cc(C(F)(F)F)ccc12 [antrafenine]
- detection in brain at 24 h (24 h post-dose, either dose level (1 and 3 mg/kg IV)): not detected
- B:P ratio Individual [1]: 0.027 and 0.094 and 0.028
- Plasma Concentration Individual [1]: 233 nM and 344 nM
- concentration at 4 h (IV 1 mg/kg, 0.25 h, individual mice, 1 mg/kg, read-out: Brain Parenchyma Concentration Individual): 8.5 nM and 22 nM and 9.5 nM
- B:P ratio Individual [2]: 0.087 and 0.046 and 0.096
- Plasma Concentration Individual [2]: 112 nM and 104 nM
- concentration at 4 h (IV 1 mg/kg, 1 h, individual mice, 1 mg/kg, read-out: Brain Parenchyma Concentration Individual): 10.5 nM and 5.2 nM and 9.9 nM
- B:P ratio Individual [3]: 0.46 and 0.26 and 0.17
- Plasma Concentration Individual [3]: 14 nM and 12.9 nM
- concentration at 4 h (IV 1 mg/kg, 4 h, individual mice, 1 mg/kg, read-out: Brain Parenchyma Concentration Individual): 5.7 nM and 3.7 nM and 2.2 nM
- Plasma Concentration Individual (IV 1 mg/kg, 24 h, individual mice, 1 mg/kg): 1.6 nM and 1.8 nM
- B:P ratio Individual [4]: 0.038 and 0.048
- Plasma Concentration Individual [4]: 705 nM and 648 nM
- concentration at 4 h (IV 3 mg/kg, 0.25 h, individual mice, 3 mg/kg, read-out: Brain Parenchyma Concentration Individual): 26.6 nM and 30.9 nM
- B:P ratio Individual [5]: 0.087 and 0.10
- Plasma Concentration Individual [5]: 208 nM and 349 nM
- concentration at 4 h (IV 3 mg/kg, 1 h, individual mice, 3 mg/kg, read-out: Brain Parenchyma Concentration Individual): 40.2 nM and 18.2 nM and 35.8 nM
- B:P ratio Individual [6]: 0.30 and 0.25
- Plasma Concentration Individual [6]: 41.9 nM and 47.1 nM
- concentration at 4 h (IV 3 mg/kg, 4 h, individual mice, 3 mg/kg, read-out: Brain Parenchyma Concentration Individual): 12.7 nM and 11.7 nM
- Plasma Concentration Individual (IV 3 mg/kg, 24 h, individual mice, 3 mg/kg): 8.8 nM and 5.1 nM
- adverse reactions / toxic effects in mice (IV at 1 and 3 mg/kg): No adverse reactions or compound-related side effects were observed; also recorded: No toxic effects
- apparent plasma clearance (in words) (IV at 1 and 3 mg/kg): low
- volume of distribution (in words) (IV at 1 and 3 mg/kg): high
- concentration at 4 h (male, C57BL/6, mouse, brain parenchyma, iv, 3 mg/kg, IV 3 mg/kg, 4 h, individual mice, read-out: Brain Parenchyma Concentration Individual): 17.3 nM
- concentration at 4 h (male, C57BL/6, mouse, brain parenchyma, iv, 3 mg/kg, IV 3 mg/kg, 4 h, n = 3, read-out: Brain Parenchyma Concentration Mean ± SD): 13.9 nM
- Kp at 0.25 h (male, C57BL/6, mouse, brain, iv, 1 mg/kg, IV 1 mg/kg, 0.25 h, n = 3, read-out: B:P ratio Mean ± SD): 0.05
- concentration at 0.25 h (male, C57BL/6, mouse, brain, iv, 1 mg/kg, IV 1 mg/kg, 0.25 h, n = 3, read-out: Brain Parenchyma Concentration Mean ± SD): 13.3 nM
- Kp at 1 h (male, C57BL/6, mouse, brain, iv, 1 mg/kg, IV 1 mg/kg, 1 h, n = 3, read-out: B:P ratio Mean ± SD): 0.076
- concentration at 1 h (male, C57BL/6, mouse, brain, iv, 1 mg/kg, IV 1 mg/kg, 1 h, n = 3, read-out: Brain Parenchyma Concentration Mean ± SD): 8.5 nM
- Kp at 4 h (male, C57BL/6, mouse, brain, iv, 1 mg/kg, IV 1 mg/kg, 4 h, n = 3, read-out: B:P ratio Mean ± SD): 0.3 ± 0.15
- concentration at 4 h (male, C57BL/6, mouse, brain, iv, 1 mg/kg, IV 1 mg/kg, 4 h, n = 3, read-out: Brain Parenchyma Concentration Mean ± SD): 3.9 nM
- Kp at 0.25 h (male, C57BL/6, mouse, brain, iv, 3 mg/kg, IV 3 mg/kg, 0.25 h, individual mice, read-out: B:P ratio Individual): 0.042
- concentration at 0.25 h (male, C57BL/6, mouse, brain, iv, 3 mg/kg, IV 3 mg/kg, 0.25 h, individual mice, read-out: Brain Parenchyma Concentration Individual): 31.1 nM
- Kp at 0.25 h (male, C57BL/6, mouse, brain, iv, 3 mg/kg, IV 3 mg/kg, 0.25 h, n = 3, read-out: B:P ratio Mean ± SD): 0.042
- concentration at 0.25 h (male, C57BL/6, mouse, brain, iv, 3 mg/kg, IV 3 mg/kg, 0.25 h, n = 3, read-out: Brain Parenchyma Concentration Mean ± SD): 29.5 nM
- Kp at 1 h (male, C57BL/6, mouse, brain, iv, 3 mg/kg, IV 3 mg/kg, 1 h, individual mice, read-out: B:P ratio Individual): 0.14
- Kp at 1 h (male, C57BL/6, mouse, brain, iv, 3 mg/kg, IV 3 mg/kg, 1 h, n = 3, read-out: B:P ratio Mean ± SD): 0.11
- concentration at 1 h (male, C57BL/6, mouse, brain, iv, 3 mg/kg, IV 3 mg/kg, 1 h, n = 3, read-out: Brain Parenchyma Concentration Mean ± SD): 31.4 nM
- Kp at 4 h (male, C57BL/6, mouse, brain, iv, 3 mg/kg, IV 3 mg/kg, 4 h, individual mice, read-out: B:P ratio Individual): 0.32
- Kp at 4 h (male, C57BL/6, mouse, brain, iv, 3 mg/kg, IV 3 mg/kg, 4 h, n = 3, read-out: B:P ratio Mean ± SD): 0.29
- Kp at 4 h (male, C57BL/6, mouse, brain, iv, 3 mg/kg, IV 3 mg/kg, 4 hours after administration, read-out: concentration in the brain as percentage of that present in plasma): ~0.3
- concentration at 4 h (male, C57BL/6, mouse, brain, iv, 3 mg/kg, IV 3 mg/kg, 4 hours after administration, read-out: mean brain concentration): 13.9 nM
- concentration at 0.25 h (male, C57BL/6, mouse, plasma, iv, 1 mg/kg, IV 1 mg/kg, 0.25 h, individual mice, read-out: Plasma Concentration Individual): 313 nM
- concentration at 0.25 h (male, C57BL/6, mouse, plasma, iv, 1 mg/kg, IV 1 mg/kg, 0.25 h, n = 3, read-out: Plasma Concentration Mean ± SD): 297 nM
- concentration at 1 h (male, C57BL/6, mouse, plasma, iv, 1 mg/kg, IV 1 mg/kg, 1 h, individual mice, read-out: Plasma Concentration Individual): 122 nM
- concentration at 1 h (male, C57BL/6, mouse, plasma, iv, 1 mg/kg, IV 1 mg/kg, 1 h, n = 3, read-out: Plasma Concentration Mean ± SD): 113 nM
- concentration at 4 h (male, C57BL/6, mouse, plasma, iv, 1 mg/kg, IV 1 mg/kg, 4 h, individual mice, read-out: Plasma Concentration Individual): 12.5 nM
- concentration at 4 h (male, C57BL/6, mouse, plasma, iv, 1 mg/kg, IV 1 mg/kg, 4 h, n = 3, read-out: Plasma Concentration Mean ± SD): 13.1 nM
- concentration at 24 h (male, C57BL/6, mouse, plasma, iv, 1 mg/kg, IV 1 mg/kg, 24 h, individual mice, read-out: Plasma Concentration Individual): 2 nM
- concentration at 24 h (male, C57BL/6, mouse, plasma, iv, 1 mg/kg, IV 1 mg/kg, 24 h, n = 3, read-out: Plasma Concentration Mean ± SD): 1.8 nM
- half-life (male, C57BL/6, mouse, plasma, iv, 1 mg/kg, plasma, IV administration at 1mg/kg, read-out: Apparent t1/2 (converted)): 7.3 h
- concentration at 0.25 h (male, C57BL/6, mouse, plasma, iv, 3 mg/kg, IV 3 mg/kg, 0.25 h, individual mice, read-out: Plasma Concentration Individual): 738 nM
- concentration at 0.25 h (male, C57BL/6, mouse, plasma, iv, 3 mg/kg, IV 3 mg/kg, 0.25 h, n = 3, read-out: Plasma Concentration Mean ± SD): 697 nM
- concentration at 1 h (male, C57BL/6, mouse, plasma, iv, 3 mg/kg, IV 3 mg/kg, 1 h, individual mice, read-out: Plasma Concentration Individual): 282 nM
- concentration at 1 h (male, C57BL/6, mouse, plasma, iv, 3 mg/kg, IV 3 mg/kg, 1 h, n = 3, read-out: Plasma Concentration Mean ± SD): 280 nM
- concentration at 4 h (male, C57BL/6, mouse, plasma, iv, 3 mg/kg, IV 3 mg/kg, 4 h, individual mice, read-out: Plasma Concentration Individual): 53 nM
- concentration at 4 h (male, C57BL/6, mouse, plasma, iv, 3 mg/kg, IV 3 mg/kg, 4 h, n = 3, read-out: Plasma Concentration Mean ± SD): 47.5 nM
- concentration at 4 h (male, C57BL/6, mouse, plasma, iv, 3 mg/kg, IV 3 mg/kg, 4 hours after administration, read-out: mean plasma concentration): 47.5 nM
- concentration at 24 h (male, C57BL/6, mouse, plasma, iv, 3 mg/kg, IV 3 mg/kg, 24 h, individual mice, read-out: Plasma Concentration Individual): 5.7 nM
- concentration at 24 h (male, C57BL/6, mouse, plasma, iv, 3 mg/kg, IV 3 mg/kg, 24 h, n = 3, read-out: Plasma Concentration Mean ± SD): 6.5 nM
- half-life (male, C57BL/6, mouse, plasma, iv, 3 mg/kg, plasma, IV administration at 3mg/kg, read-out: Apparent t1/2 (converted)): 7.4 h
- half-life (male, C57BL/6, mouse, plasma, iv, 3 mg/kg, plasma, IV at 1 and 3 mg/kg, each profile, read-out: apparent terminal half-life (converted)): ~7 h
- AUC(0-inf) [7]: 1.29 µM·h
- clearance [7]: 22 mL/min/kg
- Vd [7]: 2.3 L/kg
- AUC(0-inf) [8]: 3.14 µM·h
- clearance [8]: 27.1 mL/min/kg
- Vd [8]: 3.9 L/kg

Source: PMC12682947, “Identification of New KCNT1‐Epilepsy Drugs by In Silico, Cell, and Drosophila Modeling” (Annals of Neurology, 2025)
